Ends that are not written are not given here.
Assays:
intracranial U87 tumor = experiment: Anti-glioblastoma efficacy test of intracranial glioma (survival); type: in vivo, nude mice
Procedure: After the nude mice was anesthetized and fixed with stereotaxic apparatus, intracranial U87 tumor bearing model was established on nude mice by implanted with U87 cells (5×10^5 cells dispersed in 5 μL of PBS buffer for each mouse) in the logarithmic growth phase into the right striatum (0.6 mm in front of […], 1.8 mm in the lateral direction, and 3 mm in depth). The status of naked mice was observed regularly. […] The total dose of DOX was 10 mg/Kg except 2.5 mg/Kg for low dose and 5 mg/kg for medium dose. The ^DVAP dose was the amount of ^DVAP contained in the high dose of ^DVAP-DOX. The survival time of mice were recorded (FIG. 24).

[1] = Serum stability of VAP peptides in mouse serum; type: in vitro ADME; conditions: 50% mouse serum, 37° C., after 2 h incubation
Procedure: At 0 and 15 min, 0.5, 1, 2 and 4 h, 100 μL solution was taken out and 20 μL trichloroacetic acid (TCA) was added to precipitate protein of the serum, after standing for 20 min at 4° C., the solution was centrifuged at 12,000 rpm for 10 min. 20 μL supernatant was taken for HPLC analysis.

GRP78 protein [2] = target: T1, GRP78 protein (Homo sapiens, UniProt P11021); experiment: VAP mutual competition inhibition test on U87 cells (flow cytometry); type: cell-based; set-up: saturate the receptor protein on the cell surface; endogenous in cells; host or cells: U87 glioma cells; conditions: 4° C., unlabeled peptide before fluorescein-labeled peptide
Procedure: U87 cells were digested by trypsin and transferred to EP tubes, washed with PBS three times to remove trypsin, pretreated at 4° C. for 20 min. The prepared peptide solution (non-fluorescent label) was also placed at 4° C. for low temperature pretreatment, then the peptide solution was mixed with the cells and shocked for 2 h to saturate the receptor protein on the cell surface. Then the fluorescein-labeled peptide solution was added.

GRP78 protein [3] = target: T1, GRP78 protein; experiment: Binding activity of VAP to GRP78 by surface plasmon resonance (Biacore); conditions: SPR, GRP78 coupled to CM5 chip
Procedure: Pre-binding analysis was performed by the biacore system, and pH 5.0 was selected as the optimal pH for GRP78 binding to the CMS chip. […] The samples were injected from low to high concentration.

T1 sequence (P11021 19-654): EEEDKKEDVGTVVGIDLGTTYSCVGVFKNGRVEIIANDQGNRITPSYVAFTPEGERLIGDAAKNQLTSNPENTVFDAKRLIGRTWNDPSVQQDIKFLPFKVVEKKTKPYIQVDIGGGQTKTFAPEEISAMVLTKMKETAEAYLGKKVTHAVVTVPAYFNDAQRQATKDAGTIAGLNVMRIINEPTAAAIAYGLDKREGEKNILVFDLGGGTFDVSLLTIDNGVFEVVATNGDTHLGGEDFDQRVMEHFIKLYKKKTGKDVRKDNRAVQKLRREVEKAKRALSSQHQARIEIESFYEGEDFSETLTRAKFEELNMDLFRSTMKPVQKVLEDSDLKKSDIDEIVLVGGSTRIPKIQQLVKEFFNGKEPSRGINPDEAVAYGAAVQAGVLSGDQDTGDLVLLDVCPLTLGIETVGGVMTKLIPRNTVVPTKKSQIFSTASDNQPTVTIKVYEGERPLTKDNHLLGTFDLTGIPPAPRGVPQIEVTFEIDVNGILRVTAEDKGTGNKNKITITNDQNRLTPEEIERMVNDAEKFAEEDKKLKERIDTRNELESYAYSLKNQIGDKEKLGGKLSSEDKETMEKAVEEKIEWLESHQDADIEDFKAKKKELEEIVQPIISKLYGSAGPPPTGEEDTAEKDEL

residual percentage of intact polypeptide (degradation) [1] | competitive inhibition between VAP peptides (GRP78 protein [2]) | Kd value (dissociation) (GRP78 protein [3]) [s⁻¹] | Kd (GRP78 protein [3]) [µM] | Compound | AUC0-6h (FIGS. 25A-25B) [ng·h/mL] | MRT0-6h (FIGS. 25A-25B) [h] | T1/2 (FIGS. 25A-25B) [h] | mean survival time (intracranial U87 tumor; total dose of DOX 10 mg/Kg (high dose), tail vein, days 10, 13, 16, 19, 22) [days] | mean survival time (intracranial U87 tumor; ^DVAP alone, amount contained in the high dose of ^DVAP-DOX) [days]
 |  |  |  | COc1cccc2c1C(=O)c1c(O)c3c(c(O)c1C2=O)C[C@@](O)(C(=O)CO)C[C@@H]3O[C@H]1C[C@H](N)[C@H](O)[C@H](C)O1 [DOX, doxorubicin] | 7976 ± 1515 | 1.836 ± 0.695 | 2.131 ± 0.646 | 36 | 
hardly degraded | completely inhibit each other | 0.02826 | 5.22 | CC(C)[C@@H](NC(=O)[C@@H](CCCNC(=N)N)NC(=O)[C@H](NC(=O)[C@@H](CC(N)=O)NC(=O)[C@H](N)CO)[C@H](C)O)C(=O)N[C@H](C)C(=O)N1CCC[C@@H]1C(=O)O [^SVAP] |  |  |  |  | 
completely degraded | completely inhibit each other | 0.01898 |  | SNTRVAP [^LVAP, reference compound] |  |  |  |  | 

Compound | residual percentage of intact polypeptide (degradation) [1] | competitive inhibition between VAP peptides (GRP78 protein [2]) | Kd value (dissociation) (GRP78 protein [3]) [s⁻¹] | Kd (GRP78 protein [3]) [µM] | AUC0-6h (FIGS. 25A-25B) [ng·h/mL] | MRT0-6h (FIGS. 25A-25B) [h] | T1/2 (FIGS. 25A-25B) [h] | mean survival time (intracranial U87 tumor; total dose of DOX 10 mg/Kg (high dose), tail vein, days 10, 13, 16, 19, 22) [days] | mean survival time (intracranial U87 tumor; ^DVAP alone, amount contained in the high dose of ^DVAP-DOX) [days]
CC(C)[C@@H](NC(=O)[C@@H](C)NC(=O)[C@H]1CCCN1)C(=O)N[C@H](CCCNC(=N)N)C(=O)N[C@@H](C(=O)N[C@H](CC(N)=O)C(=O)N[C@H](CO)C(=O)O)[C@H](C)O [^DVAP] | hardly degraded | completely inhibit each other | 0.02091 |  |  |  |  |  | 45.5
